Measurements reported in patent US20140288044A1, “COMPOSITIONS AND THERAPEUTIC USES OF IKK-RELATED KINASE EPSILON AND TANKBINDING KINASE 1 INHIBITORS” (Alzheimer's Institute of America, Inc., priority 2011, published 2014).
Read-outs that look alike come from different tables or passages of the source.

Experiments:
IKKε = biological target: T1, IKKε (Homo sapiens, UniProt Q14164); experiment: In-vitro IKKε kinase assay (radiolabelled ATP, filterplate); format: biochemical
T1 construct: His-tag (in-house Sf9 preparation) or GST-tag (purchased Invitrogen preparation); these are alternatives, not both on one protein; host or cells: Sf9 cells
T1 sequence (Q14164 1-716): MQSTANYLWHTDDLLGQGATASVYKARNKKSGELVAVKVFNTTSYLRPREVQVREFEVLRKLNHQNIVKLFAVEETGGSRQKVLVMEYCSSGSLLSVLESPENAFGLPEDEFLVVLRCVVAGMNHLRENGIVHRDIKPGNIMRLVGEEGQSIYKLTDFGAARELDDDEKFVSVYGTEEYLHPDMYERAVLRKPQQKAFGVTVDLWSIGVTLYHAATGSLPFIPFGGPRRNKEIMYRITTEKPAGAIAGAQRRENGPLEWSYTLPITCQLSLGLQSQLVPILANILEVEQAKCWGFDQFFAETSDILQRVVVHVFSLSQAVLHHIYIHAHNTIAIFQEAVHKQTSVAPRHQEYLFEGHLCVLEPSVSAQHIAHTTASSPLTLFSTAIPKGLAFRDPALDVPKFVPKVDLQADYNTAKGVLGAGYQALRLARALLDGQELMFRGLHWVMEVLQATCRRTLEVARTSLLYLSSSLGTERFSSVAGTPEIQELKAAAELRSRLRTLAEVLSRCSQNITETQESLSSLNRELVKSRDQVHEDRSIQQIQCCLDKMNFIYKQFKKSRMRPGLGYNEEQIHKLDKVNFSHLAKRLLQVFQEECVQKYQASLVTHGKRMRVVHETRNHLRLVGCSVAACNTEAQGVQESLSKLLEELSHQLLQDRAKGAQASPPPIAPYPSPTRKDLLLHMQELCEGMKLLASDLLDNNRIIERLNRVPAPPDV
Method in brief: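 His-tagged IKKε from Sf9 cells or GST-tagged IKKε, with myelin basic protein, casein or dephosphorylated casein as substrate and 32 μM ATP (2× Km) plus [γ^33]ATP. "Normal" assay used 0.1 μg/ml enzyme; "sensitized" used 0.015 μg/ml with dephosphorylated casein only. Stopped after 30–45 min with phosphoric acid; P-81 filter counts normalized to DMSO after background subtraction.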

[1] = system: IKKε-mediated phosphorylation of IRF3; experiment: ELISA for in-situ phosphorylation of IRF3 (phospho-Ser396) in HEK293T cells cotransfected with IRF3 and IKKε; format: cell-based; conditions: Homo sapiens, HEK-293T, 20 h, HEK293T cells, 20 hours, read-out: IC50, in-situ IKKε-mediated phosphorylation of IRF3
Description: HEK293T cells were cotransfected in a 10-cm dish with IRF3 and IKKε expression plasmids using Lipofectamine 2000 (Invitrogen, Carlsbad, Calif.). The following day, cells were replated at 20,000 per well in 96-well plates and treated with test compounds (compounds according to Formulae I and/or II) for 20 hours. Cell lysates were prepared and analyzed using an ELISA for phospho-Ser396 (anti-IRF3 capture antibody, Santa Cruz Biotechnology, Inc., Santa Cruz, Calif.; anti-p-Ser396 IRF3 detection antibody, Cell Signaling, Danvers, Mass.). pIRF3 levels in compound treated cells were normalized to DMSO treated cells (no compound). Cell viability was assayed in a parallel set of plates to monitor cytotoxic effects of the test compounds (CellTiter-Glo, Promega, Inc., Madison, Wis.). TBK1 activity was tested by Western blotting using a phospho-specific IRF7 antibody. Similar to above, HEK293T cells were transfected with IRF7 and TBK1 expression plasmids. Cells were seeded in 12-well plates at 150,000 per well and treated overnight with test compounds. Protein lysates were prepared and processed for Western blotting followed by detection using a phosphor-Ser477/Ser479 IRF7 antibody (BD Biosciences, San Jose, Calif.)

[2] = in-vitro IKKε kinase inhibition assays, given as 0.005 μM (5 nM), read-out: IKKε kinase inhibitory activity (IC50 value)
[3] = "sensitized" assay, read-out: IC50, inhibition of the kinase activity of IKKε
[4] = range given from about 1 μM to about 250 nM

| Structure (SMILES) | IC50 (IKKε; [2]) | IC50 [1] | IC50 [1, 4] | IC50 (IKKε; [3]) |
| --- | --- | --- | --- | --- |
| N#Cc1cc(-c2ccnc(Nc3ccc(-n4ccnc4)nc3)n2)ccc1OC1CCOCC1 [Example Compound 75, 5-(2-{[6-(1H-Imidazol-1-yl)pyridin-3-yl]amino}pyrimidin-4-yl)-2-(tetrahydro-2H-pyran-4-yloxy)benzonitrile] | < 5 nM | < 100 nM | – | – |
| CC(c1ccc(Nc2nccc(-c3ccc(OC4CCOCC4)c(C#N)c3)n2)cn1)N1CC(O)C1 (stereo not drawn) [Example Compound 63, 5-[2-({6-[1-(3-Hydroxyazetidin-1-yl)ethyl]pyridin-3-yl}amino)pyrimidin-4-yl]-2-(tetrahydro-2H-pyran-4-yloxy)benzonitrile] | < 5 nM | 100 to 250 nM | – | – |
| Cn1cc(-c2ccc(Nc3nccc(-c4ccc(OC5CCOCC5)c(C#N)c4)n3)cn2)cn1 [Example Compound 77, 5-(2-{[6-(1-Methyl-1H-pyrazol-4-yl)pyridin-3-yl]amino}pyrimidin-4-yl)-2-(tetrahydro-2H-pyran-4-yloxy)benzonitrile] | < 5 nM | < 100 nM | – | – |
| COC1CN(c2cc(Nc3nccc(-c4ccc(OC5CCOCC5)c(C#N)c4)n3)ccn2)C1 [Example Compound 43, 5-(2-{[2-(3-Methoxyazetidin-1-yl)pyridin-4-yl]amino}pyrimidin-4-yl)-2-(tetrahydro-2H-pyran-4-yloxy)benzonitrile] | < 5 nM | < 100 nM | – | < 5 nM |
| CN(C)C1CCN(c2ccc(Nc3nccc(-c4ccc(OC5CCOCC5)c(C#N)c4)n3)nn2)C1 (stereo not drawn) [Example Compound 87, 5-[2-({6-[3-(Dimethylamino)pyrrolidin-1-yl]pyridazin-3-yl}amino)pyrimidin-4-yl]-2-(tetrahydro-2H-pyran-4-yloxy)benzonitrile] | < 5 nM | – | 250 to 1000 nM | < 5 nM |
| CN(Cc1ccc(Nc2nccc(-c3ccc(OC4CCOCC4)c(C#N)c3)n2)cn1)C(=O)C1(N)CC1 [Example Compound 60, 1-Amino-N-{[5-({4-[3-cyano-4-(tetrahydro-2H-pyran-4-yloxy)phenyl]pyrimidin-2-yl}amino)pyridin-2-yl]methyl}-N-methylcyclopropanecarboxamide] | < 5 nM | 100 to 250 nM | – | – |
| COC1CN(C(=O)c2ncc(Nc3nccc(-c4ccc(OC5CCOCC5)c(C#N)c4)n3)n2C)C1 [Example Compound 102, 5-[2-({2-[(3-Methoxyazetidin-1-yl)carbonyl]-1-methyl-1H-imidazol-5-yl}amino)pyrimidin-4-yl]-2-(tetrahydro-2H-pyran-4-yloxy)benzonitrile] | < 5 nM | 100 to 250 nM | – | < 5 nM |
| N#Cc1cc(-c2ccnc(Nc3ccc(C(=O)N4CC(O)C4)nc3)n2)ccc1OC1CCOCC1 [Example Compound 32, 5-[2-({6-[(3-Hydroxyazetidin-1-yl)carbonyl]pyridin-3-yl}amino)pyrimidin-4-yl]-2-(tetrahydro-2H-pyran-4-yloxy)benzonitrile] | < 5 nM | – | 250 to 1000 nM | < 5 nM |
| N#Cc1cc(-c2ccnc(Nc3ccc(N4CCOCC4)nc3)n2)ccc1O[C@@H]1CCN(C(=O)CO)C1 [Example Compound 119, 2-{[(3R)-1-(Hydroxyacetyl)pyrrolidin-3-yl]oxy}-5-(2-{[6-(morpholin-4-yl)pyridin-3-yl]amino}pyrimidin-4-yl)benzonitrile] | < 5 nM | 100 to 250 nM | – | < 5 nM |
| Cc1ccc(Nc2nccc(-c3ccc(OCC4CC4)c(C#N)c3)n2)cn1 [Example Compound 112, 2-(Cyclopropylmethoxy)-5-{2-[(6-methylpyridin-3-yl)amino]pyrimidin-4-yl}benzonitrile] | – | 100 to 250 nM | – | – |
| Cn1cc(Nc2nccc(-c3ccc(OC4CCOCC4)c(C#N)c3)n2)cn1 [Example Compound 97, 5-{2-[(1-Methyl-1H-pyrazol-4-yl)amino]pyrimidin-4-yl}-2-(tetrahydro-2H-pyran-4-yloxy)benzonitrile] | – | 1000 to 5000 nM | – | – |
| Cc1ccc(Nc2nccc(-c3ccc(NC(=O)C(C)C)c(C#N)c3)n2)cn1 [Example Compound 136, N-(2-Cyano-4-{2-[(6-methylpyridin-3-yl)amino]pyrimidin-4-yl}phenyl)-2-methylpropanamide] | – | 1000 to 5000 nM | – | – |

More lines, main results first:

| IC50 (IKKε; [2]) | IC50 [1] | IC50 [1, 4] | Structure (SMILES) | IC50 (IKKε; [3]) |
| --- | --- | --- | --- | --- |
| – | 1000 to 5000 nM | – | N#Cc1cc(-c2ccnc(Nc3ccnc(N4CC(O)C4)c3)n2)ccc1NC(=O)C1CC1 [Example Compound 237, N-[2-Cyano-4-(2-{[2-(3-hydroxyazetidin-1-yl)pyridin-4-yl]amino}pyrimidin-4-yl)phenyl]cyclopropanecarboxamide] | < 5 nM |
| – | 100 to 250 nM | – | N#Cc1cc(-c2ccnc(Nc3ccc(C(=O)N4CCCC4)nc3)n2)ccc1OC1CCN(C(=O)CO)CC1 [Example Compound 232, 2-{[1-(Hydroxyacetyl)piperidin-4-yl]oxy}-5-(2-{[6-(pyrrolidin-1-ylcarbonyl)pyridin-3-yl]amino}pyrimidin-4-yl)benzonitrile] | < 5 nM |
| – | < 100 nM | – | N#Cc1cc(-c2ccnc(Nc3ccc(N4CC(O)C4)nc3)n2)ccc1OC1CCOCC1 [Example Compound 215, 5-(2-{[6-(3-Hydroxyazetidin-1-yl)pyridin-3-yl]amino}pyrimidin-4-yl)-2-(tetrahydro-2H-pyran-4-yloxy)benzonitrile] | < 5 nM |
| – | 1000 to 5000 nM | – | N#Cc1cc(-c2ccnc(Nc3cncc(C(=O)NCCO)c3)n2)ccc1OC1CCOCC1 [Example Compound 175, 5-({4-[3-Cyano-4-(tetrahydro-2H-pyran-4-yloxy)phenyl]pyrimidin-2-yl}amino)-N-(2-hydroxyethyl)pyridine-3-carboxamide] | < 5 nM |
| – | – | 250 to 1000 nM | N#Cc1cc(-c2ccnc(Nc3cncc(CN4CCOCC4)c3)n2)ccc1OC1CCOCC1 [Example Compound 185, 5-(2-{[5-(Morpholin-4-ylmethyl)pyridin-3-yl]amino}pyrimidin-4-yl)-2-(tetrahydro-2H-pyran-4-yloxy)benzonitrile] | < 5 nM |
| – | 1000 to 5000 nM | – | N#Cc1cc(-c2ccnc(Nc3ccnc(N4CC(O)C4)c3)n2)ccc1OC1CCN(C(=O)CO)CC1 [Example Compound 240, 2-{[1-(Hydroxyacetyl)piperidin-4-yl]oxy}-5-(2-{[2-(3-hydroxyazetidin-1-yl)pyridin-4-yl]amino}pyrimidin-4-yl)benzonitrile] | < 5 nM |
| – | 100 to 250 nM | – | CNCc1cncc(Nc2nccc(-c3ccc(OC4CCOCC4)c(C#N)c3)n2)c1 [Example Compound 202, 5-[2-({5-[(Methylamino)methyl]pyridin-3-yl}amino)pyrimidin-4-yl]-2-(tetrahydro-2H-pyran-4-yloxy)benzonitrile] | – |
| – | – | 250 to 1000 nM | N#Cc1cc(-c2ccnc(Nc3ccnc(N4CCC[C@H]4CO)c3)n2)ccc1OC1CCOCC1 [Example Compound 180, 5-[2-({2-[(2S)-2-(Hydroxymethyl)pyrrolidin-1-yl]pyridin-4-yl}amino)pyrimidin-4-yl]-2-(tetrahydro-2H-pyran-4-yloxy)benzonitrile] | – |
| – | – | 250 to 1000 nM | COC1CN(c2cc(Nc3nccc(-c4ccc(NC(=O)C(C)C)c(C#N)c4)n3)ccn2)C1 [Example Compound 247, N-[2-Cyano-4-(2-{[2-(3-methoxyazetidin-1-yl)pyridin-4-yl]amino}pyrimidin-4-yl)phenyl]-2-methylpropanamide] | – |
| – | 1000 to 5000 nM | – | N#Cc1cc(-c2ccnc(Nc3ccc(N4CCOCC4)cn3)n2)ccc1OC1CCOCC1 [Example Compound 216, 5-(2-{[5-(Morpholin-4-yl)pyridin-2-yl]amino}pyrimidin-4-yl)-2-(tetrahydro-2H-pyran-4-yloxy)benzonitrile] | – |
